Data taken from paper PMC6112376, “Comprehensive Analyses and Prioritization of Tox21 10K Chemicals Affecting Mitochondrial Function by in-Depth Mechanistic Studies” (Environmental Health Perspectives, 2018).
Where two headings read alike, the source gives them in different places.

Legend:
hNSC = experiment: MMP assay in human neural stem cells (hNSC); assay type: cell-based; conditions: Homo sapiens, Neural stem cell; 1 h treatment; fresh re-sourced stocks; mean±SD of three experiments; read-out: hNSC IC50 (MMP)
[1] = tested on: Nrf2/ARE (ARE-bla HepG2 cells); experiment: ARE β-lactamase reporter gene assay; assay type: cell-based, human; conditions: for EC50: Homo sapiens, read-out: ARE (HepG2) EC50
[2] = tested on: Caenorhabditis elegans (Bristol N2); experiment: C. elegans larval development and growth assay
rat primary hepatocytes [3] = experiment: MMP assay in rat primary hepatocytes; conditions: for Rat hepatocytes (efficacy) (MMP): % of positive control, mean±SD of three experiments; for IC50: Rattus norvegicus, Hepatocyte
HepG2 cells [4] = experiment: cells; conditions: Homo sapiens; for Emax: HepG2, read-out: MMP assays efficacy (%) HepG2
HepG2 cells [5] = experiment: Intracellular ATP content (cell viability) assay; assay type: cell-based, human; conditions: for IC50: Homo sapiens, HepG2, 40 h treatment, mean±SD of three experiments
[6] = tested on: p53 (p53-bla HCT-116 cells); experiment: p53 β-lactamase reporter gene assay; assay type: cell-based, human
[7] = tested on: HeLa cells expressing YFP-Parkin; experiment: Parkin translocation assay; assay type: cell-based, human
HepG2 cells [8] = experiment: ROS-Glo hydrogen peroxide (ROS) assay; assay type: cell-based, human; conditions: Homo sapiens, read-out: ROS (HepG2) EC50
[9] = tested on: isolated rat liver mitochondria; experiment: Oxygen consumption, Clark-type oxygen electrode; assay type: biochemical
[10] = tested on: Caenorhabditis elegans strain PE255; experiment: In vivo C. elegans ATP status assay
HepG2 cells [11] = conditions: cited from earlier work
HepG2 cells [12] = tested on: HepG2 cells
rat primary hepatocytes [13] = tested on: rat primary hepatocytes
[14] = 16 h incubation, mean±SD of three experiments
[15] = 1 h, read-out: Rat hepatocytes IC50 (MMP)
[16] = HepG2, 1 h, read-out: HepG2 IC50 Galactose (MMP)
[17] = HepG2, 1 h, read-out: HepG2 IC50 Glucose (MMP)
[18] = 5 mM glucose, read-out: ATP (HepG2, glucose) IC50
[19] = 10 mM galactose, read-out: ATP (HepG2, galactose) IC50
[20] = HeLa cells stably expressing YFP-Parkin, treated for 2 h
[21] = HepG2, 2 h treatment, mean±SD of three experiments
[22] = read-out: MMP assays IC50 (µM) Rat Hepatocytes
[23] = HepG2, read-out: MMP assays IC50 (µM) HepG2

SMILES: CCc1cc(Cc2cc(CC)cc(C(C)(C)C)c2O)c(O)c(C(C)(C)C)c1
- IC50 (hNSC): 1.28 ± 0.56 µM
- ARE (HepG2) EC50 [1, 14]: Inactive
- LEC (lowest effect concentration), larval growth assay ([2]; 48 h exposure): ≤ 10 µM
- Rat hepatocytes (efficacy) (MMP) (rat primary hepatocytes [3]): −103±17.9%
- IC50 (rat primary hepatocytes [3]; [15]): 29.9 ± 7.25 µM
- IC50 (HepG2 cells [4]; [16]): 6.3 ± 0.43 µM
- IC50 (HepG2 cells [4]; [17]): 5.42 ± 0.62 µM
- IC50 (HepG2 cells [5]; [18]): 21.6 ± 13.8 µM
- IC50 (HepG2 cells [5]; [19]): 29.8 ± 7.25 µM
- p53 (HCT-116) EC50 [6, 14]: Inactive
- Parkin recruitment [7, 20]: Inactive
- EC50 (HepG2 cells [8]; [21]): 29.6 ± 4.08 µM

SMILES: NNc1nc(-c2ccc(N)cc2)cs1 [2-Hydrazino-4-(4-aminophenyl) thiazole]
- IC50 (hNSC): 1.76 ± 0.57 µM
- EC50 ([1]; HepG2, 16 h incubation, mean±SD of three experiments): 10.5 ± 8.1 µM
- EXT: mean difference in nematode size relative to plate controls ([2]; 0.5 µM): 0.05389
- EXT: mean difference in nematode size relative to plate controls ([2]; 1 µM): 0.002943
- EXT: mean difference in nematode size relative to plate controls ([2]; 5 µM): -0.00605
- EXT: mean difference in nematode size relative to plate controls ([2]; 10 µM): 0.1893
- EXT: mean difference in nematode size relative to plate controls ([2]; 25 µM): 0.2089
- EXT: mean difference in nematode size relative to plate controls ([2]; 50 µM): 0.1347
- EXT: mean difference in nematode size relative to plate controls ([2]; 75 µM): 0.3557
- EXT: mean difference in nematode size relative to plate controls ([2]; 100 µM): 0.3701
- minimal effective concentration ([2]; Caenorhabditis elegans, read-out: LEC EXT: lowest effect concentration for extinction, a measure of nematode size): 25 µM
- Rat hepatocytes (efficacy) (MMP) (rat primary hepatocytes [3]): −50.5±1.77%
- IC50 (rat primary hepatocytes [3]; [15]): 19.8 ± 11.5 µM
- IC50 (rat primary hepatocytes [3]; [22]): 3.55 ± 3.86 µM
- MMP assays efficacy (%) Rat Hepatocytes (rat primary hepatocytes [3]; rat hepatocytes, mean ± SD of three experiments): -67±14%
- IC50 (HepG2 cells [4]; [16]): 18.5 ± 2.55 µM
- IC50 (HepG2 cells [4]; [17]): 15.3 ± 1.76 µM
- IC50 (HepG2 cells [4]; [23]): 0.4 µM
- Emax (HepG2 cells [4]): 85%
- I-ADP, % of control (O2 consumption rate) ([9]; 100 µM, glutamate/malate driven state 3 respiration, isolated rat liver mitochondria): 105 (55.7) % of control
- I-sub, % of control (O2 consumption rate) ([9]; 100 µM, glutamate/malate driven state 4 respiration, isolated rat liver mitochondria): 109 (14.6) % of control
- II-ADP, % of control (O2 consumption rate) ([9]; 100 µM, succinate-driven state 3 respiration, isolated rat liver mitochondria): 101 (68.1) % of control
- II-sub, % of control (O2 consumption rate) ([9]; 100 µM, succinate-driven state 4 respiration, isolated rat liver mitochondria): 98 (21.3) % of control
- Potential Mechanism ([9]; mitochondrial respiration in isolated rat liver mitochondria, Clark type oxygen electrode, over tested concentrations): Inactive
- IC50 (HepG2 cells [5]; [18]): 59.5 ± 23.5 µM
- IC50 (HepG2 cells [5]; [19]): 60.8 ± 6.99 µM
- p53 (HCT-116) EC50 [6, 14]: Inactive
- Parkin recruitment [7, 20]: Inactive
- LUM: mean difference in luminescence (ATP content) relative to plate controls ([10]; 0.5 µM): 0.02471
- LUM: mean difference in luminescence (ATP content) relative to plate controls ([10]; 1 µM): 0.06159
- LUM: mean difference in luminescence (ATP content) relative to plate controls ([10]; 5 µM): 0.05233
- LUM: mean difference in luminescence (ATP content) relative to plate controls ([10]; 10 µM): 0.08412
- LUM: mean difference in luminescence (ATP content) relative to plate controls ([10]; 25 µM): 0.4284
- LUM: mean difference in luminescence (ATP content) relative to plate controls ([10]; 50 µM): 0.3261
- LUM: mean difference in luminescence (ATP content) relative to plate controls ([10]; 75 µM): 0.5564
- LUM: mean difference in luminescence (ATP content) relative to plate controls ([10]; 100 µM): 0.6002
- minimal effective concentration ([10]; Caenorhabditis elegans, read-out: LEC LUM: lowest effect concentration for luminescence, a measure of nematode ATP content): 25 µM
- EC50 (HepG2 cells [8]; [21]): 25.4 ± 3.24 µM
- MMP assays efficacy (%) qHTS-HepG2 (HepG2 cells [11]): -83±12%
- IC50 (HepG2 cells [11]; read-out: MMP assays IC50 (µM) qHTS-HepG2): 0.06 ± 0.02 µM

SMILES: CO[C@H]1/C=C/O[C@@]2(C)Oc3c(C)c(O)c4c(O)c(c(/C=N/N5CCN(C)CC5)c(O)c4c3C2=O)NC(=O)/C(C)=C\C=C\[C@H](C)[C@H](O)[C@@H](C)[C@@H](O)[C@@H](C)[C@H](OC(C)=O)[C@@H]1C [Rifampicin, reference compound]
- EC50 ([1]; HepG2, 16 h): 45.2 µM
- HepG2 IC50 Galactose (MMP) (HepG2 cells [12]): Inactive
- IC50 (rat primary hepatocytes [3]; [15]): 41.4 µM
- IC50 (rat primary hepatocytes [3]; [22]): 6.15 ± 2.2 µM
- IC50 (HepG2 cells [4]; [17]): 63.2 µM
- IC50 (HepG2 cells [4]; [23]): 15.5 µM
- Emax (HepG2 cells [4]): 85%
- Potential Mechanism [9]: Inactive
- I-ADP, % of control (O2 consumption rate) ([9]; 4 µM): 85 (46.4) % of control
- I-sub, % of control (O2 consumption rate) ([9]; 4 µM): 89 (11.7) % of control
- II-ADP, % of control (O2 consumption rate) ([9]; 4 µM): 95 (83.4) % of control
- II-sub, % of control (O2 consumption rate) ([9]; 4 µM): 96 (23.5) % of control
- I-ADP, % of control (O2 consumption rate) ([9]; 20 µM): 71 (39.1) % of control
- I-sub, % of control (O2 consumption rate) ([9]; 20 µM): 86 (11.3) % of control
- II-ADP, % of control (O2 consumption rate) ([9]; 20 µM): 95 (84.2) % of control
- II-sub, % of control (O2 consumption rate) ([9]; 20 µM): 107 (26.2) % of control
- ATP (HepG2, galactose) IC50 (HepG2 cells [5]): Inactive
- ATP (HepG2, glucose) IC50 (HepG2 cells [5]): Inactive
- p53 (HCT-116) EC50 [6]: Inactive
- Parkin recruitment [7]: Inactive
- MMP assays efficacy (%) Rat Hepatocytes (rat primary hepatocytes [13]): -68±40%
- Rat hepatocytes (efficacy) (MMP) (rat primary hepatocytes [13]): 41.4±5.71 ( −97.5±6.10 ) %
- EC50 (HepG2 cells [8]; HepG2, 2 h): 34.5 µM
- MMP assays efficacy (%) qHTS-HepG2 (HepG2 cells [11]): -94±13%
- IC50 (HepG2 cells [11]; read-out: MMP assays IC50 (µM), qHTS-HepG2): 25.1 ± 6.38 µM
